From patent publication US6486199B1, “Spiro and dispiro 1,2,4-trioxolane antimalarials” (Medicines for Malaria Venture MMV International Centre …, priority 2001, dated 2002)

Tests used:
[1] = differential scanning calorimetry (DSC), thermal stability; format: physicochemical; conditions: thermal decomposition
[2] = test system: ANKA strain of P. Berghei; experiment: single dose STI in vivo screen in infected Moro SPF mice; conditions: for Activity (%) po / Activity (%) sc: percent reduction in parasitemia day 3 post-infection; for Activity (%) po / Survival (days) po: single 10 mg/kg po; for Activity (%) sc / Survival (days) sc: single 10 mg/kg sc; for antimalarial activity, overall assessment: overall judgement of in vitro and in vivo data of Table 2
Procedure: In the single dose STI in vivo screen, Moro SPF mice infected with the ANKA strain of P. Berghei (groups of three mice) were treated on day one post-infection with trioxolanes dissolved or suspended in 3% ethanol and 7% Tween 80. […] Antimalarial activity was measured by percent redution in parasitemia on day three post-infection and survival times compared to an untreated control group. Survival to day 30 post-infection is considered to be a cure.

[3] = test system: P. berghei; experiment: 1-day Peters test against P. berghei in vivo; conditions: 1 day, po

| SMILES | Tm dec. (° C.) [1] [°C] | other results |
| --- | --- | --- |
| O=C1CC2CC(C1)CC1(C2)OOC2(O1)C1CC3CC(C1)CC2C3 (stereo not shown) [OZ13, Adamantane-2-spiro-3′-1′,2′,4′-trioxolane-5′-spiro-3″-7″-oxobicyclo[3.3.1]nonane] | 170.1 | – |
| ON=C1CCC2(CC1)OOC1(O2)C2CC3CC(C2)CC1C3 (stereo not shown) [OZ16, Adamantane-2-spiro-3′-8′-hydroxyimino-1′,2′,4′-trioxaspiro[4.5]decane] | 153.6 | – |
| CC1(C)CC(C)(C)CC2(C1)OOC1(O2)C2CC3CC(C2)CC1C3 (stereo not shown) [OZ26, Adamantane-2-spiro-3′-7′,9′-tetramethyl-1′,2′,4′-trioxaspiro[4.5]decane] | 173.4 | – |
| CC(C)(C)ON=C1CCC2(CC1)OOC1(O2)C2CC3CC(C2)CC1C3 (stereo not shown) [OZ28, Adamantane-2-spiro-3′-8′-t-butyloxyimino-1′,2′,4′-trioxaspiro[4.5]decane] | 162.4 | – |
| CC1(C)CCC2(CC1)OOC1(O2)C2CC3CC(C2)CC1C3 (stereo not shown) [OZ33, Adamantane-2-spiro-3′-8′,8′-dimethyl-1′,2′,4′-trioxaspiro[4.5]decane] | 163.1 | – |
| c1ccc(C2(c3ccccc3)CCC3(CC2)OOC2(O3)C3CC4CC(C3)CC2C4)cc1 (stereo not shown) [OZ34, Adamantane-2-spiro-3′-8′,8′-diphenyl-1′,2′,4′-trioxaspiro[4.5]decane] | 181.4 | Activity (%) po [2]: 0/0%; Activity (%) sc [2]: 0/0% |
| CC(C)(C)OC(=O)N1CCC2(CC1)OOC1(O2)C2CC3CC(C2)CC1C3 (stereo not shown) [OZ35, Adamantane-2-spiro-3′-8′-t-butoxycarbonyl-1′,2′,4′-trioxa-8′-azaspiro[4.5]decane] | 159.4 | – |
| CON=C1CC2CC3(CC2C1)OOC1(O3)C2CC3CC(C2)CC1C3 (stereo not drawn) [OZ37, Adamantane-2-spiro-3′-1′,2′,4′-trioxolane-5′-spiro-3″-7″-methoxyimino-cis-bicyclo[3.3.0]octane] | 151.2 | – |
| O=C1c2ccccc2C(=O)N1N=C1CCC2(CC1)OOC1(O2)C2CC3CC(C2)CC1C3 (stereo not shown) [OZ38, Adamantane-2-spiro-3′-8′-(N-phthalimido)imino-1′,2′,4′-trioxaspiro[4.5]decane] | 165.1 | – |
| CC(C)C1CCC2(CC1)OOC1(O2)C2CC3CC(C2)CC1C3 (stereo not shown) [OZ40, Adamantane-2-spiro-3′-8′-isopropyl-1′,2′,4′-trioxaspiro[4.5]decane] | 164.2 | – |
| Fc1ccc(C2CCC3(CC2)OOC2(O3)C3CC4CC(C3)CC2C4)cc1 (stereo not shown) [OZ41, Adamantane-2-spiro-3′-8′-(4′-fluorophenyl)-1′,2′,4′-trioxaspiro[4.5]decane] | 159.0 | P. berghei (1 day) ED50 po [3]: 2.8 mg/kg; P. berghei (1 day) ED90 po [3]: 5.1 mg/kg |
| c1ccc(C2(c3ccccc3)OOC3(O2)C2CC4CC(C2)CC3C4)cc1 (stereo not shown) [OZ42, Adamantane-2-spiro-3′-5′,5′-diphenyl-1′,2′,4′-trioxolane] | 159.1 | – |
| Fc1ccc(C2(c3ccc(F)cc3)OOC3(O2)C2CC4CC(C2)CC3C4)cc1 (stereo not shown) [OZ44, Adamantane-2-spiro-3′-5′, 5′-bis(4′-fluorophenyl)-1′,2′,4′-trioxolane] | 157.5 | – |
| Fc1c(F)c(F)c(C2(c3c(F)c(F)c(F)c(F)c3F)OOC3(O2)C2CC4CC(C2)CC3C4)c(F)c1F (stereo not shown) [OZ45, Adamantane-2-spiro-3′-5′,5′-bis(2′,3′,4′,5′,6′-pentafluorophenyl)-5′,2′,4′-trioxolane] | 133.7 | – |
| FC(F)(F)c1cccc(C2(c3cccc(C(F)(F)F)c3)OOC3(O2)C2CC4CC(C2)CC3C4)c1 (stereo not shown) [OZ46, Adamantane-2-spiro-3′-5′,5′-bis[3′-(trifluoromethyl)phenyl]-1′,2′,4′-trioxolane] | 161.3 | – |
| Clc1ccc(C2CCC3(CC2)OOC2(O3)C3CC4CC(C3)CC2C4)cc1 (stereo not shown) [OZ47, Adamantane-2-spiro-3′-8′-(4′-chlorophenyl)-1′,2′,4′-trioxaspiro[4.5]decane] | 159.3 | – |
| FC(F)(F)c1ccc(C2CCC3(CC2)OOC2(O3)C3CC4CC(C3)CC2C4)cc1 (stereo not shown) [OZ48, Adamantane-2-spiro-3′-8′-[4′-(trifluoromethyl)phenyl]-1′,2′,4′-trioxaspiro[4.5]decane] | 156.1 | – |
| Cc1ccc(S(=O)(=O)N2CCC3(CC2)OOC2(O3)C3CC4CC(C3)CC2C4)cc1 (stereo not shown) [OZ51, Adamantane-2-spiro-3′-8′-(p-toluenesulfonyl)-1′,2′,4′-trioxa-8′-azaspiro[4.5]decane] | 152.3 | – |

| SMILES | Tm dec. (° C.) [1] [°C] | other results |
| --- | --- | --- |
| c1ccc(CC2(Cc3ccccc3)OOC3(O2)C2CC4CC(C2)CC3C4)cc1 (stereo not shown) [OZ52, Adamantane-2-spiro-3′-5′,5′-dibenzyl-1′,2′,4′-trioxolane] | 154.9 | – |
| CCOC(=O)CCC(=O)N1CCC2(CC1)OOC1(O2)C2CC3CC(C2)CC1C3 (stereo not shown) [OZ53, Adamantane-2-spiro-3′-8′-[3′-(ethoxycarbonyl)propionyl]-1′,2′,4′-trioxa-8′-azaspiro[4.5]decane] | 152.7 | – |
| O=C(O)CON=C1CCC2(CC1)OOC1(O2)C2CC3CC(C2)CC1C3 (stereo not shown) [OZ54, Adamantane-2-spiro-3′-8′-carboxymethoxyimino-1′,2′,4′-trioxaspiro[4.5]decane] | 149.3 | Survival (days) po [2]: 7.0/7.0 days; Survival (days) sc [2]: 7.0/7.0 days |
| CS(=O)(=O)N1CCC2(CC1)OOC1(O2)C2CC3CC(C2)CC1C3 (stereo not shown) [OZ56, Adamantane-2-spiro-3′-8′-methanesulfonyl-1′,2′,4′-trioxa-8′-azaspiro[4.5]decane] | 158.0 | – |
| O=S(=O)(c1ccc(Cl)cc1)N1CCC2(CC1)OOC1(O2)C2CC3CC(C2)CC1C3 (stereo not shown) [OZ57, Adamantane-2-spiro-3′-8′-(4′-chlorobenzenesulfonyl)-1′,2′,4′-trioxa-8′-azaspiro[4.5]decane] | 158.0 | – |
| O=C(O)CCC(=O)N1CCC2(CC1)OOC1(O2)C2CC3CC(C2)CC1C3 (stereo not shown) [OZ58, Adamantane-2-spiro-3′-8′-(3′-carboxypropionyl)-1′,2′,4′-trioxa-8′-azaspiro[4.5]decane] | 147.0 | – |
| COc1ccc(S(=O)(=O)N2CCC3(CC2)OOC2(O3)C3CC4CC(C3)CC2C4)cc1 (stereo not shown) [OZ59, Adamantane-2-spiro-3′-8′-(4′-methoxybenzenesulfonyl)-1′,2′,4′-trioxa-8′-azaspiro[4.5]decane] | 152.2 | – |
| O=S(=O)(c1ccccc1)N1CCC2(CC1)OOC1(O2)C2CC3CC(C2)CC1C3 (stereo not shown) [OZ60, Adamantane-2-spiro-3′-8′-benzenesulfonyl-1′, 2′,4′-trioxa-8′-azaspiro[4.5]decane] | 152.6 | – |
| N#CC1(c2ccccc2)CCC2(CC1)OOC1(O2)C2CC3CC(C2)CC1C3 (stereo not shown) [OZ63, Adamantane-2-spiro-3′-8′-cyano-8′-phenyl-1′,2′,4′-trioxaspiro[4.5]decane] | 158.3 | – |
| CC(C)(C)COC(=O)C1CCC2(CC1)OOC1(O2)C2CC3CC(C2)CC1C3 (stereo not shown) [OZ64, Adamantane-2-spiro-3′-8′-neopentyloxycarbonyl-1′,2′,4′-trioxaspiro[4.5]decane] | 163.8 | – |
| c1ccc(C2CCC3(CC2)OOC2(O3)C3CCCC2CCC3)cc1 (stereo not shown) [OZ67, Bicyclo[3.3.1]nonane-9-spiro-3′-8′-phenyl-1′,2′,4′-trioxaspiro[4.5]decane] | 162.3 | antimalarial activity, overall assessment [2]: completely inactive; Activity (%) po [2]: 0/0%; Activity (%) sc [2]: 0/0%; Survival (days) po [2]: 5.0/5.0 days; Survival (days) sc [2]: 5.0/5.0 days |
| CC1(C)COC2(CCC3(CC2)OOC2(O3)C3CCCC2CCC3)OC1 (stereo not shown) [OZ68, Bicyclo[3.3.1]nonane-9-spiro-3′-11′,11′-dimethyl-1′,2′,4′,9′,13′-pentaoxadispiro[4.2.5.2]pentadecane] | 163.1 | antimalarial activity, overall assessment [2]: similarly inactive |
| CC(=O)OC1(c2ccc(F)cc2)CCC2(CC1)OOC1(O2)C2CC3CC(C2)CC1C3 (stereo not shown) [OZ69, Adamantane-2-spiro-3′-8′-acetoxy-8′-(4′-fluorophenyl)-1′,2′,4′-trioxaspiro[4.5]decane] | 164.1 | Survival (days) po [2]: 6.3/6.3 days; Survival (days) sc [2]: 6.3/6.3 days |
| CCN(CC)C(=O)C1CCC2(CC1)OOC1(O2)C2CC3CC(C2)CC1C3 (stereo not shown) [OZ73, Adamantane-2-spiro-3′-8′-diethylaminocarbonyl-1′,2′,4′-trioxaspiro[4.5] decane] | 160.2 | antimalarial activity, overall assessment [2]: only weakly active |
| O=C(OC1CCC2(CC1)OOC1(O2)C2CC3CC(C2)CC1C3)c1ccccc1 (stereo not shown) [OZ74, Adamantane-2-spiro-3′-8′-benzoyloxy-1′,2′,4′-trioxaspiro[4.5]decane] | 161.2 | – |
| N#CC1(c2ccc(Cl)c(Cl)c2)CCC2(CC1)OOC1(O2)C2CC3CC(C2)CC1C3 (stereo not shown) [OZ75, Adamantane-2-spiro-3′-8′-cyano-8′-(3′,4′-dichlorophenyl)-1′,2′,4′-trioxaspiro[4.5]decane] | 159.1 | – |
| OC1(c2ccc(F)cc2)CCC2(CC1)OOC1(O2)C2CC3CC(C2)CC1C3 (stereo not shown) [OZ76, Adamantane-2-spiro-3′-8′-(4′-fluorophenyl)-8′-hydroxy-1′,2′,4′-trioxaspiro[4.5]decane] | 149.6 | – |
| COC1(c2ccc(F)cc2)CCC2(CC1)OOC1(O2)C2CC3CC(C2)CC1C3 (stereo not shown) [OZ77, Adamantane-2-spiro-3′-8′-(4′-fluorophenyl)-8′-methoxy-1′,2′,4′-trioxaspiro[4.5]decane] | 161.3 | antimalarial activity, overall assessment [2]: excellent activity |
